“And” between values parts separate entries of the source, which are not always exact repeats. Equal entries are not always repeated. Where two headings read alike, the source gives them in different places.
Legend:
CCL1 = assay: Glycan array analysis of CCL1 (CFG mammalian glycan array V4.2); format: binding, Coprinopsis cinerea; conditions: Alexa Fluor 488 labeled CCL1 200 µg/ml, array V4.2, average of triplicates
Experimental: (§1) Purified CCL1 and CCL2 were fluorescently labeled with Alexa Fluor 488 (Invitrogen) according to the manufacturer's protocol and used (at a final concentration of 200 µg/ml) to probe versions 4.2 and 3.1, respectively, of the mammalian glycan array offered by Core H of the Consortium for Functional Glycomics (CFG).

CCL2 = assay: Glycan array analysis of CCL2 (CFG mammalian glycan array V3.1); format: binding, Coprinopsis cinerea; conditions: for RFU (relative fluorescence units): Alexa Fluor 488 labeled CCL2 200 µg/ml, array V3.1, average of triplicates; for binding on glycan array (in words): fluorescently labeled CCL2 200 µg/ml, array V3.1
Experimental: as §1

[1] = ligand Glc1,3Man1,2Man1,2Man; ref 2 of Table S6 (Kozlov et al. 2010); cited from earlier work
[2] = parameters: method as in ref 3 of Table S6 (Gupta et al. 2008); conditions: ligand Glc1,3Man1,2ManOMe; ref 3 of Table S6 (Gupta et al. 2008); cited from earlier work
CCL2 wild-type [3] = target: T1, CCL2 wild-type (Coprinopsis cinerea, UniProt B3GA02); format: binding
T1 sequence (B3GA02 2-142 limits assumed): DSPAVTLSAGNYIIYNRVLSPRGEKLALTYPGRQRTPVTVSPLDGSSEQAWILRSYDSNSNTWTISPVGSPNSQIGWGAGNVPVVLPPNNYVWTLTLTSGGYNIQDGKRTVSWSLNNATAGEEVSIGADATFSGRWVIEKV

CCL2 wild-type [4] = target: T1, CCL2 wild-type; format: binding; remark: listed apart in the source
WBA II = format: binding; conditions: read-out: KD [μmol]; cited from earlier work
ConA = assay: Literature thermodynamic binding data of lectin-carbohydrate interactions compiled in Table S6 for comparison; conditions not given; parameters: method as in values quoted from other papers; conditions: read-out: KD [μmol]; cited from earlier work
Calreticulin = assay: as above; parameters: method as in values quoted from other papers; conditions: read-out: KD [μmol]; cited from earlier work
MOA = assay: as above; parameters: method as in values quoted from other papers; conditions: read-out: KD [μmol]; cited from earlier work
CCL2 (Wild type) = target: T2, CCL2 (Wild type) (Coprinopsis cinerea, UniProt B3GA02); assay: biochemical; format: binding
T2 construct: recombinant from E. coli, eight N-terminal His-residues (His8), monomer
T2 sequence (B3GA02 2-142): as the sequence (B3GA02 2-142 limits assumed) above

[5] = parameters: method as in ref 5 of Table S6 (Turnbull et al. 2004); conditions: ligand GM1os; ref 5 of Table S6 (Turnbull et al. 2004); cited from earlier work
RSL = format: binding; conditions: read-out: KD [μmol]; cited from earlier work
Jacalin = assay: Literature thermodynamic binding data of lectin-carbohydrate interactions compiled in Table S6 for comparison; conditions not given; parameters: method as in values quoted from other papers; conditions: read-out: KD [μmol]; cited from earlier work
[6] = target: Cholera toxin B subunit (CTB); format: binding; conditions: read-out: KD [μmol]; cited from earlier work
[7] = carbohydrate titrated to CCL2 wild-type

[3OSO3][6OSO3]Gal1-4GlcNAc-Sp0
RFU (relative fluorescence units) (CCL1): 25 RFU | RFU (relative fluorescence units) (CCL2): 193.4 RFU

Calreticulin
–TΔS [1]: 15.7 kJ/mol | –ΔH [1]: 50.0 kJ/mol | –TΔS [2]: -3.4 kJ/mol | –ΔH [2]: 29.9 kJ/mol

[4OSO3]Gal1-4GlcNAc-Sp8
RFU (relative fluorescence units) (CCL1): 17 RFU | RFU (relative fluorescence units) (CCL2): 350.4 RFU

Man1-3(Man1-6)Man1-4GlcNAc1-4GlcNAc-Sp13
RFU (relative fluorescence units) (CCL1): 116 RFU | RFU (relative fluorescence units) (CCL2): 525.3 RFU

[3OSO3][6OSO3]Gal1-4[6OSO3]GlcNAc-Sp0
RFU (relative fluorescence units) (CCL1): 3 RFU | RFU (relative fluorescence units) (CCL2): 367.7 RFU

CC(=O)N[C@H]1[C@H](O[C@H]2[C@H](O[C@@H]3O[C@@H](C)[C@@H](O)[C@@H](O)[C@@H]3O)[C@@H](NC(C)=O)[C@H](OCCCCCC(=O)O)O[C@@H]2CO)O[C@H](CO)[C@@H](O)[C@@H]1O [GlcNAcβ1,4[Fucα1,3]GlcNAcβ1-sp, GlcNAcβ1,4[Fucα1,3]GlcNAcβ-O(CH2)5COONa]
NMR titration (CCL2 wild-type [3]; [7]): large chemical shift deviations, slow exchange | ΔH (CCL2 wild-type [4]): -49.8 kJ/mol | −TΔS (CCL2 wild-type [4]): 16.3 kJ/mol

GlcNAc1-3(GlcNAc1-4)(GlcNAc1-6)GlcNAc-Sp8
RFU (relative fluorescence units) (CCL1): 264 RFU | RFU (relative fluorescence units) (CCL2): 103.1 RFU

GlcNAc1-2Man1-3(GlcNAc1-2Man1-6)Man1-4GlcNAc1-4GlcNAc-Sp13
RFU (relative fluorescence units) (CCL1): 68 RFU | RFU (relative fluorescence units) (CCL2): 674.3 RFU

[3OSO3]Gal1-4Glc-Sp8
RFU (relative fluorescence units) (CCL1): 29 RFU | RFU (relative fluorescence units) (CCL2): 152.3 RFU

CO[C@@H]1O[C@H](CO)[C@@H](O[C@@H]2O[C@H](CO)[C@H](O)[C@H](O)[C@H]2O[C@@H]2O[C@@H](C)[C@@H](O)[C@@H](O)[C@@H]2O)[C@H](O)[C@H]1NC(C)=O [Fuc1,2Gal1,4GlcNAcOMe, Fucα1,2Galβ1,4GlcNAc methyl glycoside]
Kd (WBA II): 3.2 µM

[3OSO3]Gal1-4GlcNAc-Sp8
RFU (relative fluorescence units) (CCL1): 110 RFU | RFU (relative fluorescence units) (CCL2): 110.8 RFU

CO[C@H]1O[C@H](CO[C@H]2O[C@H](CO)[C@@H](O)[C@H](O)[C@@H]2O)[C@@H](O)[C@H](O[C@H]2O[C@H](CO)[C@@H](O)[C@H](O)[C@@H]2O)[C@@H]1O [Man1,6[Man1,3]ManOMe, Manα1,6[Manα1,3]Man methyl glycoside]
Kd (ConA): 2000 nM

CO[C@H]1O[C@H](CO)[C@@H](O)[C@H](O)[C@@H]1O[C@H]1O[C@H](CO)[C@@H](O)[C@H](O[C@H]2O[C@H](CO)[C@@H](O)[C@H](O)[C@H]2O)[C@@H]1O [Glc1,3Man1,2ManOMe, Glcα1,3Manα1,2Manα-OMe (methyl glycoside)]
Kd (Calreticulin): 1800 nM

C[C@@H]1O[C@@H](O[C@H]2C(O)O[C@H](CO)[C@H](O)[C@@H]2O[C@H]2O[C@H](CO)[C@H](O)[C@H](O)[C@H]2O)[C@@H](O)[C@H](O)[C@@H]1O (stereo partly shown) [Galα1,3[Fucα1,2]Gal, blood group B trisaccharide]
Kd (MOA): 36 µM

6-H2PO3Man-Sp8
RFU (relative fluorescence units) (CCL1): 3 RFU | RFU (relative fluorescence units) (CCL2): 118.9 RFU

CC(=O)N[C@H]1C(O)O[C@H](CO)[C@@H](O[C@@H]2O[C@H](CO)[C@H](O)[C@H](O[C@H]3O[C@H](CO)[C@H](O)[C@H](O)[C@H]3O)[C@H]2O)[C@@H]1O (stereo partly shown) [Gal1,3Gal1,4GlcNAc, Galα1,3Galβ1,4GlcNAc]
Kd (MOA): 42.3 µM

CO[C@@H]1O[C@H](CO)[C@@H](O)[C@H](O[C@@H]2O[C@@H](C)[C@@H](O)[C@@H](O)[C@@H]2O)[C@H]1NC(C)=O [Fucα1,3GlcNAc-OMe, Fucα1,3GlcNAc methyl glycoside]
Kd (CCL2 (Wild type)): > 500 µM

[6OSO3]Gal1-4[6OSO3]Glc-Sp8
RFU (relative fluorescence units) (CCL1): 20 RFU | RFU (relative fluorescence units) (CCL2): 298.1 RFU

Cholera toxin B subunit (CTB): cholera-toxin B subdomain
–TΔS [5]: 30.8 kJ/mol | –ΔH [5]: 72.4 kJ/mol

[3OSO3]Gal1-3GalNAc-Sp8
RFU (relative fluorescence units) (CCL1): 118 RFU | RFU (relative fluorescence units) (CCL2): 216.8 RFU

CO[C@@H]1O[C@@H](C)[C@@H](O)[C@@H](O)[C@@H]1O [FucOMe, methyl fucopyranoside]
Kd (RSL): 730 nM

CO[C@H]1O[C@H](CO)[C@H](O)[C@H](O)[C@H]1O [GalOMe, methyl galactopyranoside]
Kd (Jacalin): 58 µM

C[C@@H]1O[C@@H](O[C@H]2[C@H](O[C@H]3[C@H](O)[C@@H](O)C(O)O[C@@H]3CO)O[C@H](CO)[C@H](O)[C@@H]2O)[C@@H](O)[C@H](O)[C@@H]1O (stereo partly shown) [2-Fucosyllactose, 2'-fucosyllactose]
Kd (RSL): 250 nM

CO[C@@H]1O[C@H](CO)[C@@H](O)[C@H](O[C@@H]2O[C@@H](C)[C@@H](O)[C@@H](O)[C@@H]2O)[C@H]1NC(C)=O [Fucα1,3GlcNAc-OMe]
NMR titration (CCL2 wild-type [3]): no binding

[4OSO3][6OSO3]Gal1-4GlcNAc-Sp0
RFU (relative fluorescence units) (CCL1): 5 RFU | RFU (relative fluorescence units) (CCL2): 222.7 RFU

CC(=O)NC1C(OC2C(CO)OC(O)C(O)C2O)OC(CO)C(OC2OC(CO)C(O)C(O)C2O)C1OC1OC(C)C(O)C(O)C1O (stereo not shown) [Galβ1,4[Fucα1,3]GlcNAcβ1,4Gal]
NMR titration (CCL2 wild-type [3]): large chemical shift deviations, slow to intermediate exchange

OC[C@H]1O[C@H](O[C@@H]2[C@H](O)[C@@H](O[C@@H]3[C@@H](O[C@@H]4C(O)O[C@H](CO)[C@@H](O)[C@@H]4O)O[C@H](CO)[C@@H](O)[C@@H]3O)O[C@H](CO)[C@H]2O)[C@H](O)[C@@H](O)[C@@H]1O (stereo partly shown) [Glcα1,3Manα1,2Manα1,2Man, Glcα1,3Manα1,2Manα1,2Man tetrasaccharide]
Kd (Calreticulin): 770 nM

[3OSO3]Gal1-4[6OSO3]GlcNAc-Sp8
RFU (relative fluorescence units) (CCL1): 333 RFU | RFU (relative fluorescence units) (CCL2): 101.0 RFU

Neu5Acα2,3Galβ1,4Glc
NMR titration (CCL2 wild-type [3]; [7]): no binding

CO[C@@H]1O[C@H](CO)[C@@H](O[C@@H]2O[C@H](CO)[C@H](O)[C@H](O)[C@H]2O)[C@H](O[C@@H]2O[C@@H](C)[C@@H](O)[C@@H](O)[C@@H]2O)[C@H]1NC(C)=O [Galβ1,4[Fucα1,3]GlcNAcβ1-OMe]
drop in affinity (CCL2 wild-type [4]): ~300 fold

Neu5Ac2-8Neu5Ac2-8Neu5AcSp8
RFU (relative fluorescence units) (CCL2): 66.6 RFU

Neu5Ac2-6Gal1-4GlcNAc1-2Man1-3(Neu5Ac2-6Gal1-4GlcNAc1-2Man1-6)Man1-4GlcNAc1-4GlcNAc-Sp12
RFU (relative fluorescence units) (CCL1): 122 RFU | RFU (relative fluorescence units) (CCL2): 183.9 RFU

NCCCO[C@@H]1O[C@H](CO)[C@@H](O)[C@H](O)[C@H]1NC(=O)CO [-GlcN(Gc)-Sp8, -GlcN(Gc)- Sp8]
RFU (relative fluorescence units) (CCL2): 136.2 RFU

-D-Gal–Sp8
RFU (relative fluorescence units) (CCL2): 280.7 RFU and 194.7 RFU

CO[C@@H]1O[C@H](CO)[C@@H](O[C@@H]2O[C@H](CO)[C@H](O)[C@H](O)[C@H]2O)[C@H](O[C@@H]2O[C@@H](C)[C@@H](O)[C@@H](O)[C@@H]2O)[C@H]1NC(C)=O [Galβ1,4[Fucα1,3]GlcNAcβ1-OMe, Lewis X trisaccharide methyl glycoside]
Kd (CCL2 (Wild type)): 456 µM

CC(=O)N[C@H]1[C@H](O[C@H]2[C@H](O[C@@H]3O[C@@H](C)[C@@H](O)[C@@H](O)[C@@H]3O)[C@@H](NC(C)=O)C(O)O[C@@H]2CO)O[C@H](CO)[C@H](O)[C@@H]1O (stereo partly shown) [fucosylated LacdiNAc, GalNAcβ1,4[Fucα1,3]GlcNAc]
binding on glycan array (in words) (CCL2): binds | binding on glycan array (in words) (CCL2; listed as GalNAcβ1,4[Fucα1,3]GlcNAc): one of the best binders

CC(=O)N[C@H]1[C@H](O[C@@H]2[C@H](O[C@]3(C(=O)O)C[C@H](O)[C@@H](NC(C)=O)[C@H]([C@H](O)[C@H](O)CO)O3)[C@@H](O)[C@H](O[C@H]3[C@H](O)[C@@H](O)C(O)O[C@@H]3CO)O[C@@H]2CO)O[C@H](CO)[C@H](O)[C@@H]1O[C@@H]1O[C@H](CO)[C@H](O)[C@H](O)[C@H]1O (stereo partly shown) [GM1os, GM1 ganglioside oligosaccharide]
Kd [6]: 43 nM

Source: paper PMC3355094 (PLoS Pathogens, 2012)
